Assay results published in BindingDB's records for doi:10.1021/jm00367a006 (1984).

Target: dopamine D1 receptor (Rattus norvegicus)
Experiment: Effective concentration that gives maximal stimulation of cyclic AMP production over the concentration range tested.

Structure (SMILES)	EC50 [nM]
CN1Cc2c(N)cccc2[C@H](c2ccc(O)c(O)c2)C1	1870
CN1Cc2c(N)cccc2C(c2ccc(O)c(O)c2)C1 (configuration not stated) [4-(8-Amino-2-methyl-1,2,3,4-tetrahydro-isoquinolin-4-yl)-benzene-1,2-diol]	2880
